Data reported in US10092584B2 (Achillion Pharmaceuticals, Inc., priority 2015, dated 2018).
Where a name gives a salt, the structure may show the parent alone. Read-outs that look alike come from different tables or passages of the source.

Target: T1, Human Factor D (Homo sapiens, UniProt P00746)
T1 construct: purified from human serum; purchased Complement Technology, Inc; host or cells: human serum
Assay: Human Factor D assay (Example 8)
Assay type: biochemical
Experimental: Human Factor D (purified from human serum, Complement Technology, Inc.) at 80 nM final concentration was incubated with test compound at various concentrations for 5 minutes at room temperature in 50 mM Tris, 1M NaCl, pH 7.5. A synthetic substrate Z-L-Lys-SBzl and DTNB (Ellman's reagent) are added to final concentrations of 100 μM each. […] IC50 values are calculated by nonlinear regression of complement Factor D reaction rates as a function of test compound concentration.

[1] = Table 2, Human Factor D 80 nM, substrate Z-L-Lys-SBzl, read-out: IC50
[2] = Table 1, Human Factor D 80 nM, substrate Z-L-Lys-SBzl, read-out: IC50
[3] = Table 3, Human Factor D 80 nM, substrate Z-L-Lys-SBzl, read-out: IC50 (Stars)

T1 sequence (P00746 26-253): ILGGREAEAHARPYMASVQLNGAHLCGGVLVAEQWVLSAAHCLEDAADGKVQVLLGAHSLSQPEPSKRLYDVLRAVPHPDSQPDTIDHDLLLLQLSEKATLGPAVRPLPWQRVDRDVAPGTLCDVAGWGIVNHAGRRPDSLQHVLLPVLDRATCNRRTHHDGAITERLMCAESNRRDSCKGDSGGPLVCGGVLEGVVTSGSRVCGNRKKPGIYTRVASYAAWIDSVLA

Compound: NC(=O)c1nn(CC(=O)N2C[C@H](F)C[C@H]2C(=O)Nc2cccc(-c3ccccc3Cl)c2F)c2cc(Cl)sc12 [Compound 139, 5-Chloro-1-(2-((2S,4R)-2-((2′-chloro-2-fluoro-[1,1′-biphenyl]-3-yl)carbamoyl)-4-fluoropyrrolidin-1-yl)-2-oxoethyl)-1H-thieno[3,2-c]pyrazole-3-carboxamide]
- IC50 [1]: < 1 µM

Compound: CC(=O)c1cn(CC(=O)N2C[C@H](F)C[C@H]2Cn2cc(-c3ccc(F)cc3)nn2)c2ccccc12 [Compound 27, 2-(3-acetyl-1H-indol-1-yl)-1-((2S,4R)-4-fluoro-2-((4-(4-fluorophenyl)-1H-1,2,3-triazol-1-yl)methyl)pyrrolidin-1-yl)ethanone]
- IC50 [2]: > 10 µM

Compound: NC(=O)c1nn(CC(=O)N2C[C@H](F)C[C@H]2C(=O)Nc2cccc(-c3cc(F)c(F)cc3Cl)c2F)c2ccc(Br)cc12 [Compound 319, 5-bromo-1-(2-((2S,4R)-2-((2′-chloro-2,4′,5′-trifluoro-[1,1′-biphenyl]-3-yl)carbamoyl)-4-fluoropyrrolidin-1-yl)-2-oxoethyl)-1H-indazole-3-carboxamide]
- IC50 [3]: < 1 µM

Compound: CC(=O)c1cn(CC(=O)N2C[C@H](F)C[C@H]2C(=O)Nc2cccc(-c3ccccc3Cl)c2F)c2c(C#N)cccc12 [Compound 79, (2S,4R)-1-(2-(3-acetyl-7-cyano-1H-indol-1-yl)acetyl)-N-(2′-chloro-2-fluorobiphenyl-3-yl)-4-fluoropyrrolidine-2-carboxamide]
- IC50: < 1 µM

Compound: NC(=O)c1nn(CC(=O)N2C[C@H](F)C[C@H]2C(=O)Nc2cccc(-c3ccc4c(c3Cl)NCCN4)c2F)c2ccccc12 [Compound 443, 1-(2-((2S,4R)-2-((3-(5-Chloro-1,2,3,4-tetrahydroquinoxalin-6-yl)-2-fluorophenyl)carbamoyl)-4-fluoropyrrolidin-1-yl)-2-oxoethyl)-1H-indazole-3-carboxamide]
- IC50 [3]: < 1 µM

Compound: O=C(NCc1cccc(Cl)c1F)[C@@H]1C[C@@H](F)CN1C(=O)Cn1c2c(c3ccccc31)CCNC2 [Compound 68, (2S,4R)-N-(3-chloro-2-fluorobenzyl)-1-(2-(3,4-dihydro-1H-pyrido[3,4-b]indol-9(2H)-yl)acetyl)-4-fluoropyrrolidine-2-carboxamide]
- IC50 [2]: > 10 µM

Compound: NC(=O)c1nn(CC(=O)N2CC(=O)C[C@H]2C(=O)Nc2cccc(-c3ccccc3Cl)c2F)c2ccccc12 [Compound 134, (S)-1-(2-(2-(2′-chloro-2-fluorobiphenyl-3-ylcarbamoyl)-4-oxopyrrolidin-1-yl)-2-oxoethyl)-1H-indazole-3-carboxamide]
- IC50 [1]: < 1 µM

Compound: CC(=O)c1cn(CC(=O)N2C[C@H](F)C[C@H]2C(=O)Nc2cccc(-c3cc(F)c(F)cc3Cl)c2F)c2ccccc12 [Compound 82, (2S,4R)-1-(2-(3-acetyl-1H-indol-1-yl)acetyl)-N-(2′-chloro-2,4′,5′-trifluorobiphenyl-3-yl)-4-fluoropyrrolidine-2-carboxamide]
- IC50: < 1 µM

Compound: CC(=O)c1nn(CC(=O)N2C[C@H](F)C[C@H]2C(=O)Nc2cccc(-c3ccc4c(c3)CNC4)c2F)c2ccccc12 [Compound 439, (2S,4R)-1-(2-(3-Acetyl-1H-indazol-1-yl)acetyl)-4-fluoro-N-(2-fluoro-3-(isoindolin-5-yl)phenyl)pyrrolidine-2-carboxamide]
- IC50 [3]: < 1 µM

Compound: CC(=O)c1cn(CC(=O)N2C[C@H](F)C[C@H]2C(=O)Nc2cccc(-c3ccccc3Cl)c2F)c2c(-c3ccc(Cl)nc3)cccc12 [Compound 112, (2S,4R)-1-(2-(3-acetyl-7-(6-chloropyridin-3-yl)-1H-indol-1-yl)acetyl)-N-(2′-chloro-2-fluorobiphenyl-3-yl)-4-fluoropyrrolidine-2-carboxamide]
- IC50: < 1 µM

Compound: CC(=O)c1nn(CC(=O)N2C[C@H](F)C[C@H]2C(=O)Nc2cccc(-c3ccccc3Cl)c2F)c2cc(C)sc12 [Compound 323, (2S,4R)-1-(2-(3-Acetyl-5-methyl-1H-thieno[3,2-c]pyrazol-1-yl)acetyl)-N-(2′-chloro-2-fluoro-[1,1′-biphenyl]-3-yl)-4-fluoropyrrolidine-2-carboxamide]
- IC50 [3]: < 1 µM

Compound: CC(=O)c1cn(CC(=O)N2C[C@H](F)C[C@H]2C(=O)Nc2cccc(Br)n2)c2ccc(C3(NC(=O)c4cncnc4)CC3)cc12 [Compound 126, N-(1-(3-acetyl-1-(2-((2S,4R)-2-(6-bromopyridin-2-ylcarbamoyl)-4-fluoropyrrolidin-1-yl)-2-oxoethyl)-1H-indol-5-yl)cyclopropyl) pyrimidine-5-carboxamide]
- IC50 [2]: < 1 µM

Compound: NC(=O)c1nn(CC(=O)N2C[C@H](F)C[C@H]2C(=O)Nc2nc3cccc(Cl)c3[nH]2)c2ccccc12 [Compound 360, 1-(2-((2S,4R)-2-((7-chloro-1H-benzo[d]imidazol-2-yl)carbamoyl)-4-fluoropyrrolidin-1-yl)-2-oxoethyl)-1H-indazole-3-carboxamide]
- IC50 [3]: < 1 µM

Compound: CC(=O)c1nn(CC(=O)N2C[C@H](F)C[C@H]2C(=O)Nc2cccc(Br)n2)c2cnc(Cl)cc12 [Compound 399, (2S,4R)-1-(2-(3-Acetyl-5-chloro-1H-pyrazolo[3,4-c]pyridin-1-yl)acetyl)-N-(6-bromopyridin-2-yl)-4-fluoropyrrolidine-2-carboxamide]
- IC50 [3]: < 1 µM

Compound: CC(=O)c1nn(CC(=O)N2C[C@H](F)C[C@H]2C(=O)Nc2cccc(-c3ccc4[nH]cnc4c3Cl)c2F)c2cnccc12 [Compound 459, (2S,4R)-1-(2-(3-acetyl-1H-pyrazolo[3,4-c]pyridin-1-yl)acetyl)-N-(3-(4-chloro-1H-benzo[d]imidazol-5-yl)-2-fluorophenyl)-4-fluoropyrrolidine-2-carboxamide]
- IC50 [3]: < 1 µM

Compound: NC(=O)n1cc(NC(=O)C2=C(C(=O)NCc3cccc(Cl)c3F)CCC2)c2ccccc21 [Compound 31, N1-(1-carbamoyl-1H-indol-3-yl)-N2-(3-chloro-2-fluorobenzyl)cyclo-pent-1-ene-1,2-dicarboxamide]
- IC50 [2]: > 10 µM

Compound: NC(=O)c1nn(CC(=O)N2C[C@H](F)C[C@H]2C(=O)Nc2cccc(-c3ccccc3Cl)c2F)c2cc(C(=O)O)sc12 [Compound 132, 3-carbamoyl-1-(2-((2S,4R)-2-(2′-chloro-2-fluorobiphenyl-3-ylcarbamoyl)-4-fluoropyrrolidin-1-yl)-2-oxoethyl)-1H-thieno[3,2-c]pyrazole-5-carboxylic acid]
- IC50 [1]: < 1 µM

Compound: COc1ccc2c(O[C@@H]3C[C@@H](C(=O)NCc4cccc(Cl)c4F)N(C(=O)Nc4cn(C(C)=O)c5ccccc45)C3)cc(-c3ccccc3)nc2c1 [Compound 19, (2S,4R)-N1-(1-acetyl-1H-indol-3-yl)-N2-(3-chloro-2-fluorobenzyl)-4-(7-methoxy-2-phenylquinolin-4-yloxy)pyrrolidine-1,2-dicarboxamide]
- IC50 [2]: > 10 µM

Compound: CC(=O)c1nn(CC(=O)N2C[C@H](F)C[C@H]2C(=O)Nc2cccc(-c3ccc4c(c3)CCN4)c2F)c2ccccc12 [Compound 435, (2S,4R)-1-(2-(3-Acetyl-1H-indazol-1-yl)acetyl)-4-fluoro-N-(2-fluoro-3-(indolin-5-yl)phenyl)pyrrolidine-2-carboxamide]
- IC50 [3]: < 1 µM

Compound: CC(=O)n1cc(NC(=O)[C@H]2CC(F)(F)CN2C(=O)Cc2cccc(Cl)c2F)c2ccccc21 [Compound 17, (R)-N-(1-acetyl-1H-indol-3-yl)-1-(2-(3-chloro-2-fluorophenyl)acetyl)-4,4-difluoropyrrolidine-2-carboxamide]
- IC50 [2]: > 10 µM

Compound: NC(=O)c1nn(CC(=O)N2C[C@H](F)C[C@H]2C(=O)Nc2cccc(-c3cc(OC(F)(F)F)ccc3Cl)c2F)c2ccccc12 [Compound 120, 1-(2-((2S,4R)-2-(2′-chloro-2-fluoro-5′-(trifluoromethoxy)biphenyl-3-ylcarbamoyl)-4-fluoropyrrolidin-1-yl)-2-oxoethyl)-1H-indazole-3-carboxamide]
- IC50: < 1 µM

Compound: NC(=O)c1nn(CC(=O)N2C[C@H](F)C[C@H]2C(=O)Nc2cccc(-c3ccc4c(c3)NCCO4)c2F)c2ccccc12 [Compound 442, 1-(2-((2S,4R)-2-((3-(3,4-Dihydro-2H-benzo[b][1,4]oxazin-6-yl)-2-fluorophenyl)carbamoyl)-4-fluoropyrrolidin-1-yl)-2-oxoethyl)-1H-indazole-3-carboxamide]
- IC50 [3]: < 1 µM

Compound: CC(=O)c1cn(CC(=O)N2C[C@H](F)C[C@H]2C(=O)N2Cc3ccccc3C2)c2ccccc12 [Compound 33, 2-(3-acetyl-1H-indol-1-yl)-1-((2S,4R)-4-fluoro-2-(isoindoline-2-carbonyl)pyrrolidin-1-yl)ethanone]
- IC50 [2]: > 10 µM

Compound: O=C(NCc1cccc(Cl)c1F)[C@@H]1C[C@@H](F)CN1C(=O)Cn1nc(P(=O)(O)O)c2ccncc21 [Compound 57]
- IC50 [2]: > 10 µM

Compound: NCC(=O)c1ccc(Cl)c(-c2cccc(NC(=O)[C@@H]3C[C@@H](F)CN3C(=O)Cn3nc(C(N)=O)c4ccccc43)c2F)c1 [Compound 140, 1-(2-((2S,4R)-2-((2′-Chloro-2-fluoro-5′-glycyl-[1,1′-biphenyl]-3-yl)carbamoyl)-4-fluoropyrrolidin-1-yl)-2-oxoethyl)-1H-indazole-3-carboxamide hydrochloride]
- IC50 [1]: < 1 µM

Compound: CC(=O)c1cn(CC(=O)N2C[C@H](F)C[C@H]2C(=O)Nc2cccc(-c3ccc4[nH]cnc4c3Cl)c2F)c2ccccc12 [Compound 460, (2S,4R)-1-(2-(3-acetyl-1H-indol-1-yl)acetyl)-N-(3-(4-chloro-1H-benzo[d]imidazol-5-yl)-2-fluorophenyl)-4-fluoropyrrolidin-2-carboxamide]
- IC50 [3]: < 1 µM

Compound: CC(=O)c1nn(CC(=O)N2C[C@H](F)C[C@H]2C(=O)Nc2cccc(Br)n2)c2ccccc12 [Compound 388, (2S,4R)-1-(2-(3-acetyl-1H-indazol-1-yl)acetyl)-N-(6-bromopyridin-2-yl)-4-fluoropyrrolidine-2-carboxamide]
- IC50 [3]: < 1 µM
